Measured values as given in the NIST ThermoML archive (doi:10.1016/j.jct.2004.11.009).
Numbers after ± are expanded uncertainties.

Assay: xn = mol fraction of the nth substance listed
Conditions: 101.33 kPa, Liquid

Cc1cccnc1 [3-methylpyridine] + O
Conditions	mass density [kg/m3]	viscosity [mPa·s]
293.15 K, x1 = 0.0101	998 ± 0.6	1.149 ± 0.019
293.15 K, x1 = 0.0211	997.8 ± 0.6	1.301 ± 0.022
293.15 K, x1 = 0.033	997.5 ± 0.6	1.467 ± 0.024
293.15 K, x1 = 0.0462	997.2 ± 0.6	1.626 ± 0.027
293.15 K, x1 = 0.114	995.4 ± 0.6	2.301 ± 0.037
293.15 K, x1 = 0.225	992.1 ± 0.6	2.914 ± 0.046
293.15 K, x1 = 0.36	986.9 ± 0.6	3.04 ± 0.048
293.15 K, x1 = 0.436	983.1 ± 0.6	2.9 ± 0.046
293.15 K, x1 = 0.5	979.7 ± 0.6	2.733 ± 0.044
293.15 K, x1 = 0.6	974.3 ± 0.6	2.386 ± 0.038
293.15 K, x1 = 0.7	969 ± 0.6	2.021 ± 0.032
293.15 K, x1 = 0.8	964.1 ± 0.6	1.655 ± 0.027
293.15 K, x1 = 0.9	959.8 ± 0.6	1.31 ± 0.021
293.15 K, x1 = 1	956 ± 0.6	0.9459 ± 0.016
303.15 K, x1 = 0.0101	995.1 ± 0.7	0.913 ± 0.015
303.15 K, x1 = 0.0211	994.4 ± 0.7	1.021 ± 0.017
303.15 K, x1 = 0.033	993.7 ± 0.7	1.133 ± 0.019
303.15 K, x1 = 0.0462	992.9 ± 0.7	1.255 ± 0.021
303.15 K, x1 = 0.114	989.3 ± 0.7	1.705 ± 0.028
303.15 K, x1 = 0.225	984 ± 0.7	2.022 ± 0.033
303.15 K, x1 = 0.36	977.8 ± 0.6	2.034 ± 0.033
303.15 K, x1 = 0.436	973.6 ± 0.6	1.938 ± 0.031
303.15 K, x1 = 0.5	970.2 ± 0.6	1.83 ± 0.03
303.15 K, x1 = 0.6	964.5 ± 0.6	1.638 ± 0.027
303.15 K, x1 = 0.7	959.4 ± 0.6	1.449 ± 0.024
303.15 K, x1 = 0.8	954.6 ± 0.6	1.255 ± 0.021
303.15 K, x1 = 0.9	950.3 ± 0.6	1.049 ± 0.017
303.15 K, x1 = 1	946.6 ± 0.6	0.8318 ± 0.014
313.15 K, x1 = 0.0101	991.2 ± 0.7	0.731 ± 0.013
313.15 K, x1 = 0.0211	990.2 ± 0.7	0.8139 ± 0.014
313.15 K, x1 = 0.033	989.2 ± 0.7	0.8959 ± 0.015
313.15 K, x1 = 0.0462	988 ± 0.7	0.98 ± 0.016
313.15 K, x1 = 0.114	982.9 ± 0.7	1.307 ± 0.022
313.15 K, x1 = 0.225	976.4 ± 0.7	1.572 ± 0.026
313.15 K, x1 = 0.36	968.9 ± 0.7	1.588 ± 0.026
313.15 K, x1 = 0.436	964.7 ± 0.7	1.511 ± 0.025
313.15 K, x1 = 0.5	961 ± 0.7	1.43 ± 0.023
313.15 K, x1 = 0.6	955.3 ± 0.7	1.286 ± 0.021
313.15 K, x1 = 0.7	950.2 ± 0.7	1.149 ± 0.019
313.15 K, x1 = 0.8	945.5 ± 0.6	1.018 ± 0.017
313.15 K, x1 = 0.9	941.3 ± 0.6	0.884 ± 0.015
313.15 K, x1 = 1	937.7 ± 0.6	0.7352 ± 0.012
323.15 K, x1 = 0.0101	986.6 ± 0.7	0.6101 ± 0.011
323.15 K, x1 = 0.0211	985.2 ± 0.7	0.6693 ± 0.011
323.15 K, x1 = 0.033	983.7 ± 0.7	0.7356 ± 0.013
323.15 K, x1 = 0.0462	982.3 ± 0.7	0.7921 ± 0.013
323.15 K, x1 = 0.114	975.6 ± 0.7	1.048 ± 0.017
323.15 K, x1 = 0.225	967.7 ± 0.7	1.23 ± 0.02
323.15 K, x1 = 0.36	959.4 ± 0.7	1.255 ± 0.021
323.15 K, x1 = 0.436	954.9 ± 0.7	1.207 ± 0.02
323.15 K, x1 = 0.5	951.2 ± 0.7	1.162 ± 0.019
323.15 K, x1 = 0.6	945.5 ± 0.7	1.071 ± 0.018
323.15 K, x1 = 0.7	940.5 ± 0.7	0.9777 ± 0.016
323.15 K, x1 = 0.8	935.9 ± 0.7	0.8686 ± 0.015
323.15 K, x1 = 0.9	931.8 ± 0.7	0.7536 ± 0.013
323.15 K, x1 = 1	928.3 ± 0.7	0.6565 ± 0.011
333.15 K, x1 = 0.0101	981.4 ± 0.8	0.5203 ± 0.0092
333.15 K, x1 = 0.0211	979.6 ± 0.8	0.5735 ± 0.01
333.15 K, x1 = 0.033	977.7 ± 0.8	0.6346 ± 0.011
333.15 K, x1 = 0.0462	975.8 ± 0.7	0.6624 ± 0.011
333.15 K, x1 = 0.114	967.9 ± 0.7	0.866 ± 0.015
333.15 K, x1 = 0.225	958.7 ± 0.7	1.015 ± 0.017
333.15 K, x1 = 0.36	950 ± 0.7	1.042 ± 0.017
333.15 K, x1 = 0.436	945.4 ± 0.7	1.004 ± 0.017
333.15 K, x1 = 0.5	941.8 ± 0.7	0.9701 ± 0.016
333.15 K, x1 = 0.6	936.1 ± 0.7	0.8988 ± 0.015
333.15 K, x1 = 0.7	931.1 ± 0.7	0.8305 ± 0.014
333.15 K, x1 = 0.8	926.7 ± 0.7	0.7562 ± 0.013
333.15 K, x1 = 0.9	922.7 ± 0.7	0.6699 ± 0.011
333.15 K, x1 = 1	919.3 ± 0.7	0.5936 ± 0.01
343.15 K, x1 = 0.0101	975.8 ± 0.8	0.4504 ± 0.0081
343.15 K, x1 = 0.0211	973.7 ± 0.8	0.4888 ± 0.0087
343.15 K, x1 = 0.033	971.7 ± 0.8	0.5355 ± 0.0094
343.15 K, x1 = 0.0462	969.4 ± 0.8	0.5782 ± 0.01
343.15 K, x1 = 0.114	960.5 ± 0.8	0.7454 ± 0.013
343.15 K, x1 = 0.225	950.2 ± 0.8	0.8494 ± 0.014
343.15 K, x1 = 0.36	940.4 ± 0.8	0.8766 ± 0.015
343.15 K, x1 = 0.436	936 ± 0.8	0.8557 ± 0.014
343.15 K, x1 = 0.5	932.3 ± 0.7	0.8315 ± 0.014
343.15 K, x1 = 0.6	926.8 ± 0.7	0.786 ± 0.013
343.15 K, x1 = 0.7	921.8 ± 0.7	0.7335 ± 0.012
343.15 K, x1 = 0.8	917.4 ± 0.7	0.673 ± 0.011
343.15 K, x1 = 0.9	913.6 ± 0.7	0.6135 ± 0.01
343.15 K, x1 = 1	910.3 ± 0.7	0.539 ± 0.0094
